These are literature values, as cited in patent publication US20230390541A1, “Dermal Patch for Transdermal Modulation of Ghrelin Pathway” (Resarcion, LLC, priority 2019, published 2023).

For the series the following is noted: shortest structural analog among truncated ghrelin analogs.

For the substance Ser^3(octanoyl)-ghrelin (1-5), the “activity relative to native ghrelin” value was “activity similar to the native hormone”.
